Measurements from US7989478B2, “Cinnamoyl compound and use of the same” (Sumitomo Chemical Company, Limited, priority 2003, dated 2011).

Columns and labels:
[1] = test system: ability of TGF-β to promote transcription of a Type I collagen gene; test: Inhibition of the ability of TGF-β to promote transcription of a Type I collagen gene (COL-Luc reporter gene assay); type: cell-based; conditions: final concentration 1 μM; TGF-β added; normal human fetal skin fibroblast transfected with COL-Luc; 40 hours; read-out: Inhibition percentage
Experimental: 1×10^8 cells of a normal human fetal skin fibroblast (Clontech, catalogue No. CC-2509) were cultured at 37° C. overnight under 5% CO2 atmosphere. After the cultured cells were washed with a sodium phosphate buffer (hereinafter, referred to as PBS) twice, 3 ml of PBS was added thereto and the cells were scraped away the wall of a vessel using a cell scraper (Nalgen, catalogue No. 179693). The scraped cells were collected by centrifugation (1,500 rpm, 4° C., 15 min), and these were suspended in 20 ml of PBS and centrifuged again. To the resulting precipitates were added 11 ml of Solution 2 and 4.8 μl of pronase of DNA Extraction Kit (Stratagene, catalogue No. 200600). After shaken at 60° C. for 1 hour, the resulting mixture was allowed to stand in ice for 10 minutes. Then, 4 ml of Solution 3 of the kit was added to the mixture. After mixed, the mixture was allowed to stand in ice for 5 minutes and then centrifuged (3,000 rpm, 4° C., 15 min) to recover a supernatant. To the recovered supernatant was added 2 μl of RNase per 1 ml of the supernatant and the mixture was allowed to stand at 37° C. for 15 minutes. To the mixture was added 2-fold volume of ethanol. After mixed, a white thread-like substance (genomic DNA) appeared and the substance was recovered. The recovered genomic DNA was washed with 70% ethanol and then air-dried. The air-dried genomic DNA was dissolved in 500 μl of 10 mM Tris-HCl, 1 mM EDTA (pH 8.0) (hereinafter, referred to as TE).
The resulting genomic DNA solution (the amount equivalent to 1 μg of genomic DNA), each 1 μl (10 pmol/μl) of an oligonucleotide consisting of the nucleotide sequence represented by SEQ ID No:1 and an oligonucleotide consisting of the nucleotide sequence represented by SEQ ID No:2, 29 μL of distilled water, 5 μl of the buffer attached to TaKaRa LA Taq (TAKARA SHUZO, catalogue No. RR002A), 5 μL of a Mg^2+ solution, 5 μL of a dNTP mixture and 0.5 μl of TaKaRa LA Taq (TAKARA SHUZO, catalogue No. RR002A) were mixed. After the resulting mixed solution was incubated at 94° C. for 5 minutes, the mixed solution was subjected to 30 cycles, in which one cycle consists of incubation at 94° C. for 1 minute, at 60° C. for 1 minute and then at 72° C. for 1 minute. The mixed solution was electrophoresed on a 2% agarose gel to recover about 0.5 kb of a DNA. The recovered DNA was treated with phenol/chloroform and then precipitated with ethanol to recover the DNA. The resulting DNA was dissolved in ultrapure water. To this solution were added 2.5 μl of NheI and 2.5 μl of HindIII, and then incubated at 37° C. for 3 hours. Then, the solution was electrophoresed on a 2% agarose gel to recover about 3.5 kb of a DNA. The recovered DNA was precipitated with ethanol to recover again the DNA (hereinafter, referred to as the collagen promoter DNA).
On the other hand, the vector pGL3 (Promega, catalogue No. E1751) having the nucleotide sequence encoding firefly luciferase was digested with NheI and HindIII, and then subjected to agarose gel electrophoresis as described above to recover about 5 kb of a DNA. The recovered DNA was precipitated with ethanol to recover the DNA again. To the recovered DNA were added 44 μl of distilled water, 5 μl of Buffer attached to Alkaline Phosphatase (TAKARA SHUZO, catalogue No. 2120A) and 1 μl of Alkaline Phosphatase (TAKARA SHUZO, catalogue No. 2120A). The mixed solution was incubated at 65° C. for 30 minutes. Then, the mixed solution was treated with phenol/chloroform twice, and precipitated with ethanol to recover the DNA (hereinafter referred to as the Luc vector DNA). Then, after about 20 ng of the collagen promoter DNA and about 20 ng of the Luc vector DNA were mixed, the same amount of a DNA Ligation kit Ver2 enzyme solution was added and this was incubated overnight at 16° C. To the mixed solution was added Escherichia coli 5Hdα (TOYOBO, catalogue No. DNA-903), this was allowed to stand in ice for 30 minutes, and then incubated at 42° C. for 45 seconds. […]

[2] = test system: mRNA of Type I collagen gene in renal glomerulus; test: mRNA of Type I collagen gene in renal glomerulus of anti-Thy-1 antibody-administered rats (improvement of chronic renal failure); type: in vivo, rat; conditions: 15 mg/kg/day orally for 7 days in corn oil
Experimental: IgG was purified from an ascites-lyophilized powder (CEDARLANE, lot No. 05122) containing an anti-rat CD90 (Thy1.1) monoclonal antibody using MAbTrap kit (Amersham Biosciences, catalogue No. 17-1128-01).
6 ml of a binding buffer was added to 3 ml of ascites to sufficiently recover it, and this was passed through a 0.22 μm filter. The resulting solution was applied to a pre-bufferized column, and the column was then washed with 10 ml of a binding buffer. Thereafter, the column was eluted with 5 ml of an elution buffer. From washing, each 1 ml was fractionated, and the protein concentration of each fraction was measured using bovine serum albumin as a standard. A single peak was confirmed from an elution pattern, and an IgG fraction was dialyzed against a physiological saline overnight at 4° C. The protein concentration of the resulting anti-Thy-1 antibody (IgG) was calculated.
The present compounds represented by the compound numbers (28a) (hereinafter, referred to as the present compound (28a)), the present compound represented by a compound number (30a) (hereinafter, referred to as the present compound (30a)), the present compound represented by a compound number (33a) (hereinafter, referred to as the present compound (33a)), the present compound represented by a compound number (10e) (hereinafter, referred to as the present compound (10e)), the present compound represented by a compound number (18e) (hereinafter referred to as the present compound (18e)), the present compound represented by a compound number (31e) (hereinafter, referred to as the present compound (31e)) and a corn oil which is a medium were weighed. These were mixed using a mortar and a pestle to prepare a […]. Using four 7-week old male Wistar rats [Nippon Charles River] per group, 60 μg/ml of the anti-Thy-1 antibody (IgG) or a physiological saline was intravenously injected via a tail vein at 5 ml/kg. […] A dose of the present compound was 15 mg/kg/day.
On the next day of final administration, a rat reared as described in the above (2) was slaughtered by collection of whole blood, and kidneys were isolated. A whole RNA was separated from the cortex of the isolated kidney using RNeasy Mini Kit (QIAGEN, catalogue No. 74106). To 5 μl (50 ng) of the separated whole RNA were added 1 μl of 20 μM oligo dT and 4 μl of RNase-free distilled water. After the mixture was incubated at 65° C. for 5 minutes, it was immediately ice-cooled. To 10 μl of the solution were added 4 μl of 5× buffer, 2.4 μl of MgCl2, 1 μl of 10 mM dNTP, 1 μl of RNasin, 1 μl of Improm II and 0.6 μl of RNase-free distilled water (all available from Promega), and a reverse transcription reaction was performed under the condition of at 25° C. for 5 minutes, at 42° C. for 1 hour, and at 70° C. for 15 minutes.
Into 5 μl of the reverse transcription reaction solution were mixed each 2 μl of each 1.25 pmol/μl of primers represented by SEQ ID NOS: 3 and 4, 1.25 μl of a probe (FAM-ctcgccttca tgcgcctgct agc-TAMRA) for detecting DNA of a Type I collagen gene represented by SEQ ID No:5, each 0.25 μl of Rodent GAPDH primers, 0.25 μl of a Rodent GAPDH probe, 12.5 μl of TaqMan Universal PCR Master Mix (all available from Applied Biosystem) and 1.5 μl of sterilized water in a well of Optical 96-Well Reaction Plate (Applied Biosystem, catalogue No. N801-0560). As a standard, in place of 5 μl of the reverse transcription reaction solution, each 5 μl of 500, 250, 125, 62.5, 31.25, 15.625 ng/μl rat renal cortex cDNA which had been prepared in advance was used. Thereafter, using Gene Amp 7900 (Applied Biosystem), PCR was performed under the condition of at 50° C. for 5 minutes, and 40 cycles in which one cycle is at 95° C. for 15 seconds and at 60° C. for 1 minute. […]

| Structure (SMILES) | inhibition at 1 µM [1] [%] | ability to improve chronic renal failure ([2]; Example 5, anti-Thy-1 antibody rats) | mRNA of collagen gene ([2]; Table 3, Type I collagen amount/GAPDH amount, renal cortex, anti-Thy-1 antibody +, Wistar rats, control group 3.4, normal group 1.9, test results p < 0.05) |
| --- | --- | --- | --- |
| COC(=O)CNC(=O)c1cccc(C=CC(=O)c2c(O)c3ccccc3[nH]c2=O)c1 [Compound No. (28e), 4-hydroxy-3-[3-[3-[[(methoxycarbonylmethyl)amino]carbonyl]phenyl]-1-oxo-2-propenyl]-2(1H)-quinolinone] | ≥ 70 | – | – |
| COCCNC(=O)c1ccc(C=CC(=O)c2c(O)cc(C)[nH]c2=O)cc1 [Compound No. (33a), 4-hydroxy-3-[3-[4-[(2-methoxyethyl)aminocarbonyl]phenyl]-1-oxo-2-propenyl]-6-methyl-2(1H)-pyridinone] | – | have the ability to improve chronic renal failure | 2.4 |
| COC(=O)COc1cccc(C=CC(=O)c2c(O)cc(C)[nH]c2=O)c1 [Compound No. (7a), 4-hydroxy-3-[3-[3-[(methoxycarbonyl)methoxy]phenyl]-1-oxo-2-propenyl]-6-methyl-2(1H)-pyridinone] | ≥ 70 | – | – |
| N#CCOc1ccc(C=CC(=O)c2c(O)c3ccccc3[nH]c2=O)cc1 [Compound No. (13e), 4-hydroxy-3-[3-[4-(cyanomethoxy)phenyl]-1-oxo-2-propenyl]-2(1H)-quinolinone] | ≥ 70 | – | – |
| Cc1cc(O)c(C(=O)C=Cc2cccc(OCC#N)c2)c(=O)n1C [Compound No. (11a), 4-hydroxy-3-[3-[3-(cyanomethoxy)phenyl]-1-oxo-2-propenyl]-1,6-dimethyl-2(1H)-pyridinone] | ≥ 70 | – | – |
| N#CCNC(=O)c1cccc(C=CC(=O)c2c(O)c3ccccc3[nH]c2=O)c1 [Compound No. (33e), 4-hydroxy-3-[3-[3-[[(cyanomethyl)amino]carbonyl]phenyl]-1-oxo-2-propenyl]-2(1H)-quinolinone] | ≥ 70 | – | – |
| CS(=O)(=O)NC(=O)c1cccc(C=CC(=O)c2c(O)c3ccccc3[nH]c2=O)c1 [Compound No. (26e), 4-hydroxy-3-[3-[3-[(methanesulfonyl)aminocarbonyl]phenyl]-1-oxo-2-propenyl]-2(1H)-quinolinone] | ≥ 70 | – | – |
| COCCOC(=O)Nc1cccc(C=CC(=O)c2c(O)c3ccccc3[nH]c2=O)c1 [Compound No. (21e), 4-hydroxy-3-[3-[3-[(2-methoxyethoxy)carbonylamino]phenyl]-1-oxo-2-propenyl]-2(1H)-quinolinone] | ≥ 70 | – | – |
| Cn1c(=O)c(C(=O)C=Cc2cccc(OCC#N)c2)c(O)c2ccccc21 [Compound No. (11e), 1-methyl-4-hydroxy-3-[3-[3-(cyanomethoxy)phenyl]-1-oxo-2-propenyl]-2(1H)-quinolinone] | ≥ 70 | – | – |
| COCC(=O)Nc1cccc(C=CC(=O)c2c(O)cc(C)[nH]c2=O)c1 [Compound No. (18a), 4-hydroxy-3-[3-[3-(methoxyacetylamino)phenyl]-1-oxo-2-propenyl]-6-methyl-2(1H)-pyridinone] | ≥ 70 | – | – |
| COCCNC(=O)Nc1cccc(C=CC(=O)c2c(O)cc(C)[nH]c2=O)c1 [Compound No. (22a), 4-hydroxy-3-[3-[3-[(2-methoxyethyl)aminocarbonylamino]phenyl]-1-oxo-2-propenyl]-6-methyl-2(1H)-pyridinone] | ≥ 70 | – | – |
| Cc1cc(O)c(C(=O)C=Cc2cccc(C(=O)NCC#N)c2)c(=O)[nH]1 [Compound No. (35a), 4-hydroxy-3-[3-[3-[(cyanomethyl)aminocarbonyl]phenyl]-1-oxo-2-propenyl]-6-methyl-2(1H)-pyridinone] | ≥ 70 | – | – |
| COCC(=O)Nc1ccc(C=CC(=O)c2c(O)cc(C)[nH]c2=O)cc1 [Compound No. (20a), 4-hydroxy-3-[3-[4-(methoxyacetylamino)phenyl]-1-oxo-2-propenyl]-6-methyl-2(1H)-pyridinone] | ≥ 70 | – | – |
| Cc1cc(O)c(C(=O)C=Cc2ccc(OCC#N)cc2)c(=O)[nH]1 [Compound No. (13a), 4-hydroxy-3-[3-[4-(cyanomethoxy)phenyl]-1-oxo-2-propenyl]-6-methyl-2(1H)-pyridinone] | ≥ 70 | – | – |
